Reference: patent US8367873B2, “Phenyl-substituted bicyclooctane-1,3-dione derivatives” (Bayer Cropscience AG, priority 2008, dated 2013)

What was measured:
Type in all cases: in vivo
Alopecurus myosuroides [1] = test: Herbicidal pre-emergence action; details: pre-emergence method, 80 g/ha, greenhouse, visual assessment vs untreated controls
Summary of the method: (§1)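 Visual percent effect relative to untreated controls (0% = like control, 100% = dead) assessed three weeks after treatment in the greenhouse. Compounds, as wettable powders in water (600 l/ha, 0.2% wetting agent), were sprayed at different amounts onto covering soil over seeds sown in sandy loam.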

Echinocloa crus-galli [2] = test: Herbicidal pre-emergence action; details: pre-emergence method, 80 g/ha, greenhouse, visual assessment vs untreated controls
Summary of the method: as §1

Lolium multiflorum [3] = test: Herbicidal pre-emergence action; details: pre-emergence method, 80 g/ha, greenhouse, visual assessment vs untreated controls
Summary of the method: as §1

Setaria viridis [4] = test: Herbicidal pre-emergence action; details: pre-emergence method, 80 g/ha, greenhouse, visual assessment vs untreated controls
Summary of the method: as §1

Alopecurus myosuroides [5] = test: Herbicidal post-emergence action; details: post-emergence method, 80 g/ha
Summary of the method: (§2)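 One-leaf-stage greenhouse plants sprayed with WP at graded amounts (600 l/ha, 0.2% wetting agent); ~3 wk later, visual % effect rated vs untreated controls, 100% = dead, 0% = like control.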

Echinocloa crus-galli [6] = test: Herbicidal post-emergence action; details: post-emergence method, 80 g/ha
Summary of the method: as §2

Lolium multiflorum [7] = test: Herbicidal post-emergence action; details: post-emergence method, 80 g/ha
Summary of the method: as §2

Setaria viridis [8] = test: Herbicidal post-emergence action; details: post-emergence method, 80 g/ha
Summary of the method: as §2

[9] = system: monocotylidonous and dicotylidonous weed and crop plants; test: Herbicidal pre-emergence action (other test plants); details: pre-emergence method, 80 g/ha, greenhouse, visual assessment vs untreated controls
Summary of the method: as §1

[10] = system: monocotylidonous and dicotylidonous weed and crop plants; test: Herbicidal post-emergence action (other test plants); details: post-emergence method, 80 g/ha
Summary of the method: as §2

Row | Compound | herbicidal effect ALOMY (Alopecurus myosuroides [1]) [%] | herbicidal effect ECHCG (Echinocloa crus-galli [2]) [%] | herbicidal effect LOLMU (Lolium multiflorum [3]) [%] | herbicidal effect SETVI (Setaria viridis [4]) [%] | herbicidal effect against ALOMY (Alopecurus myosuroides) (Alopecurus myosuroides [5]) [%] | herbicidal effect against ECHCG (Echinochloa crus-galli) (Echinocloa crus-galli [6]) [%] | herbicidal effect against LOLMU (Lolium multiflorum) (Lolium multiflorum [7]) [%] | herbicidal effect against SETVI (Setaria viridis) (Setaria viridis [8]) [%] | herbicidal effect AVEFA [9] [%] | herbicidal effect against AVEFA (Avena fatua) [10] [%]
1 | CCc1cc(C)cc(C)c1C1=C(OC(C)=O)C2CC3(COC(C)(C)O3)CC2C1=O (centres unmarked) [I-b-66] | 80 | 100 | 100 | 80 | 100 | 100 | 100 | 80 | 80 | 90
2 | CCC(=O)OC1=C(c2c(C)cc(C)cc2CC)C(=O)C2CC3(COC(C)(C)O3)CC12 (centres unmarked) [I-b-67] | 90 | 100 | 100 | 90 | 100 | 100 | 100 | 90 | 90 | 70
3 | CCc1cc(C)cc(C)c1C1=C(OC(=O)C(C)C)C2CC3(COC(C)(C)O3)CC2C1=O (centres unmarked) [I-b-69] | 100 | 100 | 100 | 80 | 90 | 100 | 100 | 60 | 80 | 10
4 | CCc1cc(C)cc(C)c1C1=C(OC(=O)C(C)(C)C)C2CC3(COC(C)(C)O3)CC2C1=O (centres unmarked) [I-b-70] | 100 | 100 | 100 | 90 | 70 | 100 | 100 | 40 | 80 | 0
5 | C=C1CC2C(=O)C(c3c(C)cc(C)cc3CC)=C(OC(=O)C(C)C)C2C1 (centres unmarked) [I-b-72] | 80 | 100 | 100 | 100 | 0 | 100 | 0 | 90 | 60 | 0
6 | C=C1CC2C(=O)C(c3c(C)cc(C)cc3CC)=C(OC(=O)C(C)(C)C)C2C1 (centres unmarked) [I-b-73] | 80 | 90 | 100 | 100 | 0 | 100 | 70 | 100 | 80 | 0
7 | CCc1cc(C)cc(C)c1C1=C(OC(=O)C(C)(C)C)C2CC3(CC2C1=O)OCCCO3 (centres unmarked) [I-b-74] | 60 | 100 | 100 | 70 | 80 | 100 | 100 | 80 | 60 | 80
8 | CCc1cc(C)cc(C)c1C1=C(OC(=O)C(C)(C)C)C2CC3(CC2C1=O)OCC=CCO3 (centres unmarked) [I-b-75] | 60 | 100 | 100 | 70 | 100 | 100 | 100 | 100 | 60 | 90
